According to patent US10112907B2, “Substituted indazoles for treating tendon and/or ligament injuries” (NOVARTIS AG, priority 2016, dated 2018):
Where two headings read alike, the source gives them in different places.

Tests used:
[1] = test system: collagen type I (Col1a2) gene expression in rat tail tendon fascicles; experiment: Ex vivo assay, Col1a2 mRNA in tendon fascicles (qPCR); format: cell-based, Sprague Dawley rat
[2] = test system: Scleraxis (Scx) gene expression in rat tail tendon fascicles; experiment: Ex vivo assay, Scx mRNA in tendon fascicles (qPCR); format: cell-based, Sprague Dawley rat
[3] = test system: Tenomodulin (Tnmd) gene expression in rat tail tendon fascicles; experiment: Ex vivo assay, Tnmd mRNA in tendon fascicles (qPCR); format: cell-based, Sprague Dawley rat
[4] = test system: Scleraxis (Scx) gene transcriptional activation in TT-D6 Scx-luciferase (ScxL) cell line; experiment: SCX-LUC in vitro assay (Scx-luciferase reporter); format: cell-based; conditions: Mus musculus
[5] = 96 h, Table 3, four days, read-out: Ex vivo Col1a2 (EC50 μM)
[6] = 96 h, Table 3, four days, read-out: Ex vivo Scx (EC50 μM)
[7] = 96 h, Table 3, four days, read-out: Ex vivo Tnmd (EC50 μM)
[8] = 96 h, Table 3, four days, read-out: Scx-Luc (EC50 μM)
[9] = read-out: Ex vivo Col1a2 (EC50 uM)
[10] = read-out: Ex vivo SCX (EC50 uM)
[11] = read-out: Ex vivo Tnmd (EC50 uM)
[12] = Table 1, read-out: Ex vivo Col1a2 (EC50 uM)
[13] = Table 1, read-out: Ex vivo SCX (EC50 uM)
[14] = Table 1, read-out: Ex vivo Tnmd (EC50 uM)

EC50 [1, 5] | EC50 [2, 6] | EC50 [3, 7] | EC50 [4, 8] | EC50 [1, 9] | EC50 [2, 10] | EC50 [3, 11] | SMILES | EC50 ([4]; read-out: Scx-Luc (EC50 uM)) | EC50 [1, 12] | EC50 [2, 13] | EC50 [3, 14]
10 µM | 10 µM | 10 µM | 0.431 µM | – | – | – | Cc1cc(S(=O)(=O)N2CCC[C@H]2CO)ccc1-c1ccc2[nH]nc(N)c2c1C [Example 19, (S)-(1-((4-(3-amino-4-methyl-1H-indazol-5-yl)-3-methylphenyl)sulfonyl)pyrrolidin-2-yl)methanol] | – | – | – | –
5.32 µM | 3.7 µM | 6.64 µM | 1.26 µM | – | – | – | Cc1cc(S(=O)(=O)NC2CCOCC2)ccc1-c1ccc2[nH]nc(N)c2c1C [Example 21, 4-(3-amino-4-methyl-1H-indazol-5-yl)-3-methyl-N-(tetrahydro-2H-pyran-4-yl)benzenesulfonamide] | – | – | – | –
4.18 µM | 5.54 µM | 3.77 µM | 0.126 µM | – | – | – | Cc1cc(S(=O)(=O)N[C@H]2C[C@](O)(C(F)(F)F)C2)ccc1-c1ccc2[nH]nc(N)c2c1C [Example 31, 4-(3-amino-4-methyl-1H-indazol-5-yl)-N-((1s,3s)-3-hydroxy-3-(trifluoromethyl)cyclobutyl)-3-methylbenzenesulfonamide] | – | – | – | –
5.92 µM | 1.54 µM | 0.078 µM | 0.614 µM | – | – | – | Cc1c(-c2ccc(S(=O)(=O)N[C@H]3C[C@@H](O)C3)cc2Cl)ccc2[nH]nc(N)c12 [Example 34, 4-(3-amino-4-methyl-1H-indazol-5-yl)-3-chloro-N-((1s,3s)-3-hydroxycyclobutyl)benzenesulfonamide] | – | – | – | –
1.82 µM | 0.996 µM | 1.69 µM | 0.227 µM | – | – | – | Cc1cc(S(=O)(=O)N[C@H]2C[C@](O)(C(F)(F)F)C2)ccc1-c1ccc2[nH]nc(N)c2c1Cl [Example 37, 4-(3-amino-4-chloro-1H-indazol-5-yl)-N-((1s,3s)-3-hydroxy-3-(trifluoromethyl)cyclobutyl)-3-methylbenzenesulfonamide] | – | – | – | –
1.82 µM | 2.69 µM | 2.92 µM | 0.988 µM | – | – | – | Cc1cc(S(=O)(=O)N[C@H]2C[C@@](C)(O)C2)ccc1-c1ccc2[nH]nc(N)c2c1C [Example 40, 4-(3-amino-4-methyl-1H-indazol-5-yl)-N-((1s,3s)-3-hydroxy-3-methylcyclobutyl)-3-methylbenzenesulfonamide] | – | – | – | –
3.45 µM | 3.37 µM | 4.87 µM | 0.696 µM | – | – | – | Cc1cc(S(=O)(=O)NC2CCC(F)(F)CC2)ccc1-c1ccc2[nH]nc(N)c2c1C [Example 43, 4-(3-amino-4-methyl-1H-indazol-5-yl)-N-(4,4-difluorocyclohexyl)-3-methylbenzenesulfonamide] | – | – | – | –
2.41 µM | 4.44 µM | 2.85 µM | 1.25 µM | – | – | – | Cc1cc(S(=O)(=O)N[C@@H]2COCC[C@H]2O)ccc1-c1ccc2[nH]nc(N)c2c1C [Example 45, 4-(3-amino-4-methyl-1H-indazol-5-yl)-N-((3R,4R)-4-hydroxytetrahydro-2H-pyran-3-yl)-3-methylbenzenesulfonamide] | – | – | – | –
2.23 µM | 3.04 µM | 2.78 µM | 0.852 µM | – | – | – | CCC1(O)CC(NS(=O)(=O)c2ccc(-c3ccc4[nH]nc(N)c4c3C)c(C)c2)C1 (centres unmarked) [Example 49, 4-(3-amino-4-methyl-1H-indazol-5-yl)-N-(3-ethyl-3-hydroxycyclobutyl)-3-methylbenzenesulfonamide] | – | – | – | –
2.01 µM | 3.26 µM | 7.38 µM | 1.29 µM | – | – | – | Cc1cc(S(=O)(=O)NC2CC(O)(C3CC3)C2)ccc1-c1ccc2[nH]nc(N)c2c1C (centres unmarked) [Example 50, 4-(3-amino-4-methyl-1H-indazol-5-yl)-N-(3-cyclopropyl-3-hydroxycyclobutyl)-3-methylbenzenesulfonamide] | – | – | – | –
6.39 µM | 6.98 µM | 6.8 µM | 1.58 µM | – | – | – | Cc1cc(S(=O)(=O)NC2CC(O)(Cc3ccccc3)C2)ccc1-c1ccc2[nH]nc(N)c2c1C (centres unmarked) [Example 51, 4-(3-amino-4-methyl-1H-indazol-5-yl)-N-(3-benzyl-3-hydroxycyclobutyl)-3-methylbenzenesulfonamide] | – | – | – | –
4.42 µM | 3.8 µM | 0.706 µM | 0.242 µM | – | – | – | Cc1cc(S(=O)(=O)N2CC(F)(F)C[C@H]2CO)ccc1-c1ccc2[nH]nc(N)c2c1Cl [Example 54, (S)-(1-((4-(3-amino-4-chloro-1H-indazol-5-yl)-3-methylphenyl)sulfonyl)-4,4-difluoropyrrolidin-2-yl)methanol] | – | – | – | –
3.5 µM | 3.14 µM | 5.5 µM | 0.228 µM | – | – | – | Cc1c(-c2ccc(S(=O)(=O)N[C@H]3C[C@](O)(C(F)(F)F)C3)cc2Cl)ccc2[nH]nc(N)c12 [Example 55, 4-(3-amino-4-methyl-1H-indazol-5-yl)-3-chloro-N-((1s,3s)-3-hydroxy-3-(trifluoromethyl)cyclobutyl)benzenesulfonamide] | – | – | – | –
1.79 µM | 1.38 µM | 5.41 µM | 0.222 µM | – | – | – | Cc1cc(S(=O)(=O)N(C)C2CC(F)(F)C2)ccc1-c1ccc2[nH]nc(N)c2c1C [Example 63, 4-(3-amino-4-methyl-1H-indazol-5-yl)-N-(3,3-difluorocyclobutyl)-N,3-dimethylbenzenesulfonamide] | – | – | – | –
1.48 µM | 1.05 µM | 3.84 µM | 0.148 µM | – | – | – | Nc1n[nH]c2ccc(-c3ccc(S(=O)(=O)N[C@@H]4CCC[C@@H]4O)cc3Cl)c(Cl)c12 [Example 69, 4-(3-amino-4-chloro-1H-indazol-5-yl)-3-chloro-N-((1R,2S)-2-hydroxycyclopentyl)benzenesulfonamide] | – | – | – | –
3.77 µM | 5.23 µM | 6.51 µM | 0.632 µM | – | – | – | COc1c(-c2ccc(S(=O)(=O)N[C@@H]3CCC[C@@H]3O)cc2C)ccc2[nH]nc(N)c12 [Example 73, 4-(3-amino-4-methoxy-1H-indazol-5-yl)-N-((1R,2S)-2-hydroxycyclopentyl)-3-methylbenzenesulfonamide] | – | – | – | –
1.16 µM | 4.57 µM | 1.89 µM | 2.1 µM | – | – | – | Cc1cc(S(=O)(=O)N2CC(F)(F)C2)ccc1-c1ccc2[nH]nc(N)c2c1C [Example 78, 5-(4-((3,3-difluoroazetidin-1-yl)sulfonyl)-2-methylphenyl)-4-methyl-1H-indazol-3-amine] | – | – | – | –
– | – | – | – | 2.64 µM | 3.13 µM | 0.74 µM | N#CC[C@H](C1CCCC1)n1cc(-c2ncnc3[nH]ccc23)cn1 [reference compound] | 0.12 µM | – | – | –
– | – | – | – | – | – | – | CC1(C)CN(C(=O)c2ccc(-c3cccc4nc(NC(=O)C5CC5)nn34)cc2)C1 [reference compound] | 1.42 µM | 3.62 µM | 3.56 µM | 3.69 µM
– | – | – | – | – | – | – | C[C@@H](O)c1nc2cnc3[nH]ccc3c2n1[C@H]1CC[C@H](C#N)CC1 [reference compound] | 2.69 µM | 6.62 µM | 4.27 µM | 6.38 µM
– | – | – | – | – | – | – | C[C@@H](O)c1nc2cnc3[nH]ccc3c2n1[C@@H]1CCCOC1 [reference compound] | 1.34 µM | 4.66 µM | 0.08 µM | 6.11 µM
– | – | – | – | 5.01 µM | 5.34 µM | 6.93 µM | O=C(Nc1nc2cccc(-c3ccc(CN4CCS(=O)(=O)CC4)cc3)n2n1)C1CC1 [reference compound] | 4.32 µM | – | – | –
– | – | – | – | – | – | – | C1=C/COCc2cc(ccc2OCCN2CCCC2)Nc2nccc(n2)-c2cccc(c2)COC/1 [reference compound] | 1.06 µM | 3.11 µM | 3.32 µM | 6.71 µM
